This note sets out measurements from patent publication US9862717B2 (Merck Patent GmbH, priority 2014, dated 2018).

For one assay, the target named is T1, CDK8/CycC (Homo sapiens, UniProt P49336).
T1 construct: purchased Invitrogen PV4402
T1 sequence (P49336 whole entry): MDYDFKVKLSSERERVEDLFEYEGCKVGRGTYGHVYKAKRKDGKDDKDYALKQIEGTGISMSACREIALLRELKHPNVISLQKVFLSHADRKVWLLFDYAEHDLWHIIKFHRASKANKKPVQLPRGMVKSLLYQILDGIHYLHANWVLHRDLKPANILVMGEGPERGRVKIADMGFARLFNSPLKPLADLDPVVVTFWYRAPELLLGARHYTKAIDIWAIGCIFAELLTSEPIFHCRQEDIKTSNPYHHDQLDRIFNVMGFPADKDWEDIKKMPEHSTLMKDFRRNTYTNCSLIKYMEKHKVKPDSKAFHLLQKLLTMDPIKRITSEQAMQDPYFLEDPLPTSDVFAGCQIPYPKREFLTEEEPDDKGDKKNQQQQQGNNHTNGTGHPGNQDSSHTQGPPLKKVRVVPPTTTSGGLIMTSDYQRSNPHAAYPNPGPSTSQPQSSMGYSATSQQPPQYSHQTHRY
T1 sequence (P24863 whole entry partner): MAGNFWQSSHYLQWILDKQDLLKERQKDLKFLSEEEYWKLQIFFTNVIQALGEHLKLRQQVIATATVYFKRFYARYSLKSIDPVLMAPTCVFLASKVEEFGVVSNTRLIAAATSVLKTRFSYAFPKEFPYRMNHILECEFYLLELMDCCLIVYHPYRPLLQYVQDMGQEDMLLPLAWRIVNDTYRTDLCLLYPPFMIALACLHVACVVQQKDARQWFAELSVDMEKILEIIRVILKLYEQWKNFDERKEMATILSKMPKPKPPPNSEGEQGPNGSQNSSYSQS
In words: FRET based Lanthascreen binding competition assay for CDK8 inhibitory activity. Particulars: CDK8 co-expressed with CycC; class symbols; read-out: IC50. An outline of the steps:
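Competition binding of a dye-labeled ATP-competitive Alexa647 probe to CDK8 co-expressed with CycC, Eu-labeled via biotinylated anti-His antibody/streptavidin.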
On the technique in general: Time-resolved FRET reads energy transfer from a long-lived donor to a nearby acceptor.
For orientation: IC50 means the midpoint of a concentration-inhibition curve. For `Cc1n[nH]c2ncc(C(=O)N3CCCC3c3ccccc3OCC(F)(F)F)cc12` (centres unmarked) [compound 65, (3-Methyl-1H-pyrazolo[3,4-b]pyridin-5-yl)-{2-[2-(2,2,2-trifluoro-ethoxy)-phenyl]-pyrrolidin-1-yl}-methanone], the IC50 is 0.1 to 1 µM.

For the compound `Cc1n[nH]c2ncc(C(=O)N3CCCC(c4ccccc4)C3)cc12` (centres unmarked) [compound 66, (3-Methyl-1H-pyrazolo[3,4-b]pyridin-5-yl)-(3-phenyl-piperidin-1-yl)-methanone], the IC50 is 0.1 to 1 µM.

Regarding `Cc1n[nH]c2ncc(C(=O)N3CCCC(c4ccc(Cl)cc4)C3)cc12` (centres unmarked) [compound 67, [3-(4-Chloro-phenyl)-piperidin-1-yl]-(3-methyl-1H-pyrazolo[3,4-b]pyridin-5-yl)-methanone], the IC50 fell in the range of 0.01 to 0.1 µM.

As to `Cc1n[nH]c2ncc(C(=O)N3CCC(c4ccc(Cl)cc4)C3)cc12` (centres unmarked) [compound 68, [3-(4-Chloro-phenyl)-pyrrolidin-1-yl]-(3-methyl-1H-pyrazolo[3,4-b]pyridin-5-yl)-methanone], the IC50 was < 0.01 µM.

As for `Cc1n[nH]c2ncc(C(=O)N3CCCC3c3ccc(Cl)c(F)c3)cc12` (centres unmarked) [compound 69, [2-(4-Chloro-3-fluoro-phenyl)-pyrrolidin-1-yl]-(3-methyl-1H-pyrazolo[3,4-b]pyridin-5-yl)-methanone], the IC50 fell in the range of 0.01 to 0.1 µM.

As to `O=C(c1cnc2[nH]nc(C3CC3)c2c1)N1CCCC1c1ccc(Cl)cc1` (centres unmarked) [compound 70, [2-(4-Chloro-phenyl)-pyrrolidin-1-yl]-(3-cyclopropyl-1H-pyrazolo[3,4-b]pyridin-5-yl)-methanone], the IC50 fell in the range of 0.01 to 0.1 µM.

For `O=C(c1cnc2[nH]nc(C(F)(F)F)c2c1)N1CCCC1c1ccc(Cl)cc1` (centres unmarked) [compound 71, [2-(4-Chloro-phenyl)-pyrrolidin-1-yl]-(3-trifluoromethyl-1H-pyrazolo[3,4-b]pyridin-5-yl)-methanone], the IC50 was 0.01 to 0.1 µM.

`Nc1n[nH]c2ccc(C(=O)N3CCCCC3Cc3ccccc3)cc12` (centres unmarked) [compound 81, (3-Amino-1H-indazol-5-yl)-(2-benzyl-piperidin-1-yl)-methanone]: the IC50 was in the range of 0.1 to 1 µM.

As to `Nc1n[nH]c2ccc(C(=O)N3CCCCC3c3ccccc3)cc12` (centres unmarked) [compound 82, (3-Amino-1H-indazol-5-yl)-(2-phenyl-piperidin-1-yl)-methanone], the concentration for half-maximal inhibition (IC50) was 0.01 to 0.1 µM.

As for `Nc1n[nH]c2ccc(C(=O)N3CCCC3c3ccccc3)cc12` (centres unmarked) [compound 83, (3-Amino-1H-indazol-5-yl)-(2-phenyl-pyrrolidin-1-yl)-methanone], the IC50 is 0.01 to 0.1 µM.

Take `Nc1n[nH]c2ccc(C(=O)N3CCC(c4ccccc4)C3)cc12` (centres unmarked) [compound 84, (3-Amino-1H-indazol-5-yl)-(3-phenyl-pyrrolidin-1-yl)-methanone]: the IC50 fell in the range of 0.1 to 1 µM.

On to `Nc1n[nH]c2ccc(C(=O)N3CC[C@H](c4ccccc4)C3)cc12` [compound 87, (3-Amino-1H-indazol-5-yl)-((R)-3-phenyl-pyrrolidin-1-yl)-methanone], for which the concentration for half-maximal inhibition (IC50) lay within 0.1 to 1 µM.

For the compound `Nc1n[nH]c2ccc(C(=O)N3CC[C@@H](c4ccccc4)C3)cc12` [compound 88, (3-Amino-1H-indazol-5-yl)-((S)-3-phenyl-pyrrolidin-1-yl)-methanone], the IC50 lay in the range of 0.1 to 1 µM.

For `Nc1n[nH]c2ccc(C(=O)N3CCC[C@@H]3c3ccccc3)cc12` [compound 91], the IC50 is 0.01 to 0.1 µM.

In the case of `Nc1n[nH]c2ncc(C(=O)N3CCC[C@H]3c3ccc(Cl)cc3)cc12` [compound 96, (3-Amino-1H-pyrazolo[3,4-b]pyridin-5-yl)-[(S)-2-(4-chloro-phenyl)-pyrrolidin-1-yl]-methanone], the IC50 was in the range of 0.01 to 0.1 µM.

For `Nc1n[nH]c2ncc(C(=O)N3CCC[C@H]3c3ccc(Br)cc3)cc12` [compound 98, (3-Amino-1H-pyrazolo[3,4-b]pyridin-5-yl)-[(S)-2-(4-bromo-phenyl)-pyrrolidin-1-yl]-methanone], the IC50 was in the range of 0.01 to 0.1 µM.

Regarding `Nc1n[nH]c2ccc(C(=O)N3CCC3c3ccc(Cl)cc3)cc12` (centres unmarked) [compound 104, (3-Amino-1H-indazol-5-yl)-[2-(4-chloro-phenyl)-azetidin-1-yl]-methanone], the IC50 lay in the range of 0.01 to 0.1 µM.

On to `Nc1n[nH]c2ccc(C(=O)N3CCCCCC3c3ccc(Cl)cc3)cc12` (centres unmarked) [compound 106, (3-Amino-1H-indazol-5-yl)-[2-(4-chloro-phenyl)-azepan-1-yl]-methanone], for which the IC50 was in the range of 0.1 to 1 µM.

As for `Nc1n[nH]c2ccc(C(=O)N3CCCCCC3c3cccc(F)c3)cc12` (centres unmarked) [compound 107, (3-Amino-1H-indazol-5-yl)-[2-(3-fluoro-phenyl)-azepan-1-yl]-methanone], the IC50 was 0.1 to 1 µM.

For the compound `Nc1n[nH]c2ccc(C(=O)N3CCCC3c3ccc(C(F)(F)F)cc3)cc12` (centres unmarked) [compound 112, (3-Amino-1H-indazol-5-yl)-[2-(4-trifluoromethyl-phenyl)-pyrrolidin-1-yl]-methanone], the IC50 was in the range of 0.01 to 0.1 µM.

For the compound `CCOc1ccccc1C1CCCN1C(=O)c1ccc2[nH]nc(N)c2c1` (centres unmarked) [compound 113, (3-Amino-1H-indazol-5-yl)-[2-(2-ethoxy-phenyl)-pyrrolidin-1-yl]-methanone], the IC50 was 0.1 to 1 µM.

For the compound `Nc1n[nH]c2ccc(C(=O)N3CCCC3c3ccccc3OCC(F)(F)F)cc12` (centres unmarked) [compound 114, (3-Amino-1H-indazol-5-yl)-{2-[2-(2,2,2-trifluoro-ethoxy)-phenyl]-pyrrolidin-1-yl}-methanone], the 50% inhibitory concentration (IC50) was in the range of 0.1 to 1 µM.

As for `Nc1n[nH]c2ccc(C(=O)N3CCCC(c4ccccc4)C3)cc12` (centres unmarked) [compound 115], the IC50 is 0.1 to 1 µM.

Turning to `Nc1n[nH]c2ccc(C(=O)N3CCCC(c4ccc(Cl)cc4)C3)cc12` (centres unmarked) [compound 116, (3-Amino-1H-indazol-5-yl)-[3-(4-chloro-phenyl)-piperidin-1-yl]-methanone], the IC50 is 0.1 to 1 µM.

Take `Cc1n[nH]c2ncc(C(=O)N3CCC[C@H]3c3ccncc3)cc12` [compound 122, (3-Methyl-1H-pyrazolo[3,4-b]pyridin-5-yl)-((S)-2-pyridin-4-yl-pyrrolidin-1-yl)-methanone]: the IC50 lay in the range of 0.1 to 1 µM.

On to `Cc1n[nH]c2ncc(C(=O)N3CC(O)CC3c3ccc(F)cc3)cc12` (centres unmarked) [compound 127, [2-(4-Fluoro-phenyl)-4-hydroxy-pyrrolidin-1-yl]-(3-methyl-1H-pyrazolo[3,4-b]pyridin-5-yl)-methanone], for which the IC50 lay in the range of 0.1 to 1 µM.

For the compound `Cc1n[nH]c2ncc(C(=O)N3CCC[C@H]3c3cccnc3)cc12` [compound 129, (3-Methyl-1H-pyrazolo[3,4-b]pyridin-5-yl)-((S)-2-pyridin-3-yl-pyrrolidin-1-yl)-methanone], the IC50 lay in the range of 0.1 to 1 µM.

`Nc1n[nH]c2ccc(C(=O)N3CCC[C@H]3c3ccccc3)cc12` [compound 131, (3-Amino-1H-indazol-5-yl)-((S)-2-phenyl-pyrrolidin-1-yl)-methanone]: the concentration for half-maximal inhibition (IC50) lay in the range of 0.1 to 1 µM.

On to `Nc1n[nH]c2ccc(C(=O)N3CCC[C@@H]3c3ccccc3)cc12` [compound 132, (3-Amino-1H-indazol-5-yl)-((R)-2-phenyl-pyrrolidin-1-yl)-methanone], for which the IC50 was in the range of 0.1 to 1 µM.

The assay is the same for the next values; noted with them: IC50 [μM], CDK8 co-expressed with CycC; class symbols.
As for `Nc1n[nH]c2ccc(C(=O)N3CCCC3c3ccc(Br)cc3)cc12` (centres unmarked) [compound 74, (3-Amino-1H-indazol-5-yl)-[2-(4-bromo-phenyl)-pyrrolidin-1-yl]-methanone], the IC50 was < 0.01 µM.

Consider `Nc1n[nH]c2ccc(C(=O)N3CCC[C@H]3c3ccc(Br)cc3)cc12` [compound 76, (3-Amino-1H-indazol-5-yl)-[(S)-2-(4-bromo-phenyl)-pyrrolidin-1-yl]-methanone], for which the IC50 is < 0.01 µM.

Compound `Nc1n[nH]c2ccc(C(=O)N3CCC[C@@H]3c3ccc(Br)cc3)cc12` [compound 77, (3-Amino-1H-indazol-5-yl)-[(R)-2-(4-bromo-phenyl)-pyrrolidin-1-yl]-methanone] registered an IC50 of 0.1 to 1 µM.

For the compound `Nc1n[nH]c2ccc(C(=O)N3CCC[C@H]3c3ccc(Cl)cc3)cc12` [compound 79, (3-Amino-1H-indazol-5-yl)-[(S)-2-(4-chloro-phenyl)-pyrrolidin-1-yl]-methanone], the IC50 was < 0.01 µM.

Take `Nc1n[nH]c2ccc(C(=O)N3CCC[C@@H]3c3ccc(Cl)cc3)cc12` [compound 80, (3-amino-1H-indazol-5-yl)-[(R)-2-(4-chloro-phenyl)-pyrrolidin-1-yl]-methanone]: the IC50 was 0.1 to 1 µM.

For `Nc1n[nH]c2ccc(C(=O)N3CCCC3c3ccc(F)cc3)cc12` (centres unmarked) [compound 85, (3-Amino-1H-indazol-5-yl)-[2-(4-fluoro-phenyl)-pyrrolidin-1-yl]-methanone], the IC50 was < 0.01 µM.

Take `Nc1n[nH]c2ccc(C(=O)N3CCCC[C@H]3c3ccc(F)cc3)cc12` [compound 92, (3-Amino-1H-indazol-5-yl)-[(S)-2-(4-fluoro-phenyl)-piperidin-1-yl]-methanone]: the IC50 was 0.01 to 0.1 µM.

`Nc1n[nH]c2ccc(C(=O)N3CCC3c3ccc(F)cc3)cc12` (centres unmarked) [compound 105, (3-Amino-1H-indazol-5-yl)-[2-(4-fluoro-phenyl)-azetidin-1-yl]-methanone] returned an IC50 of 0.01 to 0.1 µM.

`Nc1n[nH]c2ccc(C(=O)N3CCC(c4ccc(Cl)cc4)C3)cc12` (centres unmarked) [compound 117, (3-Amino-1H-indazol-5-yl)-[3-(4-chloro-phenyl)-pyrrolidin-1-yl]-methanone] showed an IC50 of 0.01 to 0.1 µM.

Compound `Nc1n[nH]c2ccc(C(=O)N3CCC[C@@H]3c3ccc(F)cc3)cc12` [compound 120, (3-Amino-1H-indazol-5-yl)-[(R)-2-(4-fluoro-phenyl)-pyrrolidin-1-yl]-methanone] gave an IC50 of 0.1 to 1 µM.

Compound `Nc1n[nH]c2ccc(C(=O)N3CCC[C@H]3c3ccc(F)cc3)cc12` [compound 124, (3-Amino-1H-indazol-5-yl)-[(S)-2-(4-fluoro-phenyl)-pyrrolidin-1-yl]-methanone] registered an IC50 of 0.01 to 0.1 µM.

`Nc1n[nH]c2ccc(C(=O)N3CC[C@H]3c3ccc(F)cc3)cc12` [compound 134, (3-Amino-1H-indazol-5-yl)-[(S)-2-(4-fluoro-phenyl)-azetidin-1-yl]-methanone] showed an IC50 of 0.01 to 0.1 µM.
